# Experimental data reported in patent US8791132B2, “Compounds and methods for treatment of hypertension” (Medivation Technologies, Inc., priority 2011, dated 2014).
# Values joined by “and” are separate entries in the source; they are usually repeats but may differ in a detail not shown here. Equal entries are not always repeated. Where two headings read alike, the source gives them in different places.
# What was measured:
# [1] = target: T1, rat adrenergic α1B receptor (Rattus norvegicus, UniProt P15823); assay: Radioligand binding, adrenergic α1B ([3H]Prazosin); conditions: for Percentage inhibition of ligand binding, Adrenergic α1B (0.1 μM) / Percentage inhibition of ligand binding, Adrenergic α1B: 0.1 µM
# T1 construct: rat adrenergic α1B receptor obtained from Wistar Rat liver; from tissue; host or cells: Wistar rat liver
# T1 sequence (P15823 1-515): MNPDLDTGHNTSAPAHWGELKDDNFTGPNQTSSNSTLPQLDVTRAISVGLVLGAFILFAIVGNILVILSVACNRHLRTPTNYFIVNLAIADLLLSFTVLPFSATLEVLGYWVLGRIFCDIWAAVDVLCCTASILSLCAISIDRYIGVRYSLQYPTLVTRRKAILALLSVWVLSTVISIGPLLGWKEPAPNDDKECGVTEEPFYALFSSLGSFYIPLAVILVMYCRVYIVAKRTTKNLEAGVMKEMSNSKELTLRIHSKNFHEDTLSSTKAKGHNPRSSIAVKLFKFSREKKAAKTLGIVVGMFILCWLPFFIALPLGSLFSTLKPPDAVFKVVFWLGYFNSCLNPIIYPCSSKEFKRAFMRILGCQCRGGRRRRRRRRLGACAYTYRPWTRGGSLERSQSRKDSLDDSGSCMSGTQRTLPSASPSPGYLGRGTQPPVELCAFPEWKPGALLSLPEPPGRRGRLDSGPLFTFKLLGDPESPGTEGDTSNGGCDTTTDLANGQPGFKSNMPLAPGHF
# Outline: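 Specific binding, taken as total minus that remaining with 10 μM phentolamine, is measured after filtration and counting. Rat liver receptor preparation and 0.25 nM [3H]prazosin are incubated with compound in 50 mM Tris-HCl (pH 7.4, 0.5 mM EDTA) at 25° C for 60 min. Activity is reported as percent inhibition.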
# [2] = target: T2, human recombinant adrenergic α2B receptor (Homo sapiens, UniProt P18089); assay: Radioligand binding, adrenergic α2B ([3H]Rauwolscine); conditions: for Percentage inhibition of ligand binding, Adrenergic α2B (0.03 μM) / Percentage inhibition of ligand binding, Adrenergic α2B: compound at 0.03 μM, 0.03 µM; for Percentage inhibition of ligand binding, Adrenergic α2B: repeat assays, each datapoint shown
# T2 construct: expressed in transfected cells; host or cells: CHO-K1
# T2 sequence (P18089 1-450): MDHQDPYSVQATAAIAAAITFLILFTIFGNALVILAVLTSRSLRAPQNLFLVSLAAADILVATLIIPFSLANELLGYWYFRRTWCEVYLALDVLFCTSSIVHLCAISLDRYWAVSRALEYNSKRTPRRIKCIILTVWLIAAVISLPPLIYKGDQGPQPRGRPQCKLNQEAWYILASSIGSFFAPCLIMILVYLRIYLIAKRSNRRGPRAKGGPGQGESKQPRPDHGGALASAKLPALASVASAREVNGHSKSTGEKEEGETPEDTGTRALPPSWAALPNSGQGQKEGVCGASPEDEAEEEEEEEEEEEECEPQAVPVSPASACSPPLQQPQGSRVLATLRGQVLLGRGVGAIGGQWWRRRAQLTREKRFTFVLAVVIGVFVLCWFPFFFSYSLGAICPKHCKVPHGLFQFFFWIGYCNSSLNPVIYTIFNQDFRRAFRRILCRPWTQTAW
# Outline: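 Values are percent inhibition of specific radioligand binding. The receptor, expressed in CHO-K1 cells, was exposed to 2.5 nM [3H]Rauwolscine at 25° C for 60 min, with 10 μM Prazosin marking non-specific binding.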
# [3] = target: T3, human recombinant adrenergic α2A receptor (Homo sapiens, UniProt P08913); assay: Radioligand binding, adrenergic α2A ([3H]MK-912); conditions: for Percentage inhibition of ligand binding, Adrenergic α2A (0.1 μM) / Percentage inhibition of ligand binding, Adrenergic α2A: compound at 0.1 μM; for Percentage inhibition of ligand binding, Adrenergic α2A: repeat assays, each datapoint shown
# T3 construct: expressed in transfected cells; host or cells: insect Sf9 cells
# T3 sequence (P08913 1-465): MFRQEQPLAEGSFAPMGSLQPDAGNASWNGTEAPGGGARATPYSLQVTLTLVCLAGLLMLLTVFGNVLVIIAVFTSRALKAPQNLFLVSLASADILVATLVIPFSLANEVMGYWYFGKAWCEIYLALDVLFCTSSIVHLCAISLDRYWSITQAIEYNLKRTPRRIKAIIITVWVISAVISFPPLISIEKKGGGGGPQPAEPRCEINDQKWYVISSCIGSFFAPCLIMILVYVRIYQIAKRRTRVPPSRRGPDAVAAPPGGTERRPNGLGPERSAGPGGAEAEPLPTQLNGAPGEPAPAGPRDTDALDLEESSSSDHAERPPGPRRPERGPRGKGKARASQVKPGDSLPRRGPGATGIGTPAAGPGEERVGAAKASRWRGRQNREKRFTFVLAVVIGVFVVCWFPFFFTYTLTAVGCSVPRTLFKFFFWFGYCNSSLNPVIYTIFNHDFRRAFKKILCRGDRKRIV
# Outline: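 Displacement of 1 nM [3H]MK-912 from receptor produced in insect Sf9 cells was measured after 60 min at 25 °C. Readout: percent inhibition of specific binding.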
# [4] = compound at 0.1 μM, [3H]Prazosin, repeat datapoints each shown
# [5] = [3H]Rauwolscine, repeat datapoints each shown
# [6] = [3H]MK-912, repeat datapoints each shown, 0.1 µM
# [7] = 0.1 μM compound, read-out: Percentage inhibition of ligand binding, Adrenergic α1B
# [8] = 0.03 μM compound, read-out: Percentage inhibition of ligand binding, Adrenergic α2B
# [9] = 0.1 μM compound, read-out: Percentage inhibition of ligand binding, Adrenergic α2A
# [10] = compound at 0.1 μM, [3H]Prazosin, repeat assays, each datapoint shown
smiles,measurement,setting,value
"Cc1ccc2c(c1)c1c(n2CC(C)(OCC(=O)O)c2cccnc2)CCN(C)C1 (single isomer, unassigned) [V-14b, 2-((1-(2,8-dimethyl-3,4-dihydro-1H-pyrido[4,3-b]indol-5(2H)-yl)-2-(pyridin-3-yl)propan-2-yl)oxy)acetic acid]","Percentage inhibition of ligand binding, Adrenergic α1B (0.1 μM)",[1]; [4],2%
same,"Percentage inhibition of ligand binding, Adrenergic α2B (0.03 μM)",[2]; [5],0%
same,"Percentage inhibition of ligand binding, Adrenergic α2A (0.1 μM)",[3]; [6],3%
"CN1CCc2c(c3cc(C(C)(C)C)ccc3n2CC(O)c2ccncc2)C1 (stereo not shown) [II-68, 2-(8-tert-butyl-2-methyl-1,2,3,4-tetrahydro-pyrido[4,3-b]indol-5-yl)-1-pyridin-4-yl-ethanol]",inhibition at 0.1 µM,[1]; [7],12%
same,inhibition at 0.03 µM,[2]; [8],17%
same,inhibition at 0.1 µM,[3]; [9],5%
"CC(O)(Cn1c2c(c3cc(Cl)cnc31)CNCC2)c1ccncc1 (single isomer, unassigned) [12b, 1-(3-chloro-5,6,7,8-tetrahydro-1,6,9-triaza-fluoren-9-yl)-2-pyridin-4-yl-propan-2-ol]","Percentage inhibition of ligand binding, Adrenergic α1B",[1]; [10],8%
same,"Percentage inhibition of ligand binding, Adrenergic α2B",[2]; [3H]Rauwolscine,21%
same,"Percentage inhibition of ligand binding, Adrenergic α2A",[3]; [3H]MK-912,3%
"CN1CCc2c(c3cc(CO)ccc3n2CC(C)(F)c2cccnc2)C1 (stereo not shown) [II-213, [5-(2-fluoro-2-pyridin-3-yl-propyl)-2-methyl-2,3,4,5-tetrahydro-1H-pyrido[4,3-b]indol-8-yl]-methanol]",inhibition at 0.1 µM,"[1]; read-out: Percentage inhibition of ligand binding, Adrenergic α1B (0.1 μM), compound at 0.1 μM, [3H]Prazosin, repeat datapoints each shown",-3%
same,inhibition at 0.03 µM,"[2]; read-out: Percentage inhibition of ligand binding, Adrenergic α2B (0.03 μM), compound at 0.03 μM, [3H]Rauwolscine, repeat datapoints each shown",11%
same,inhibition at 0.1 µM,"[3]; read-out: Percentage inhibition of ligand binding, Adrenergic α2A (0.1 μM), compound at 0.1 μM, [3H]MK-912, repeat datapoints each shown",12%
"Cc1ccc2c(c1)c1c(n2CC(O)c2ccncc2)CCN(CCS(=O)(=O)O)C1 (stereo not shown) [II-97, 2-(3,4-dihydro-5-(2-hydroxy-2-(pyridin-4-yl)ethyl)-8-methyl-1H-pyrido[4,3-b]indol-2(5H)-yl)ethanesulfonic acid]",inhibition at 0.1 µM,[1]; [7],-4%
same,inhibition at 0.03 µM,[2]; [8],24%
same,inhibition at 0.1 µM,[3]; [9],4%
"OC(Cn1c2c(c3cccnc31)CN1CCCC1C2)c1ccncc1 (single isomer, unassigned) [37a]","Percentage inhibition of ligand binding, Adrenergic α1B",[1]; [10],−5%
same,"Percentage inhibition of ligand binding, Adrenergic α2B",[2]; [3H]Rauwolscine,2%
same,"Percentage inhibition of ligand binding, Adrenergic α2A","[3]; [3H]MK-912, 0.1 µM",18%
Cc1ccc2c(c1)c1c(n2CC(O)c2cc[n+]([O-])cc2)CCN(C)C1 (stereo not shown) [69b],"Percentage inhibition of ligand binding, Adrenergic α1B",[1]; [10],8%
same,"Percentage inhibition of ligand binding, Adrenergic α2B",[2]; [3H]Rauwolscine,19%
same,"Percentage inhibition of ligand binding, Adrenergic α2A","[3]; [3H]MK-912, 0.1 µM",7%
"COc1ccc(C(O)Cn2c3c(c4cc(C)ccc42)CN(C)CC3)cn1 (stereo not shown) [compound 51, 2-(2,8-dimethyl-1,2,3,4-tetrahydro-pyrido[4,3-b]indol-5-yl)-1-(6-methoxy-pyridin-3-yl)-ethanol]","Percentage inhibition of ligand binding, Adrenergic α1B",[1]; [10],43%
same,"Percentage inhibition of ligand binding, Adrenergic α2B",[2]; [3H]Rauwolscine,82%
same,"Percentage inhibition of ligand binding, Adrenergic α2A","[3]; [3H]MK-912, 0.1 µM",20%
"Cc1ccc2c(c1)c1c(n2CC(OC(=O)c2ccncc2)c2ccncc2)CCN(C)C1 (single isomer, unassigned) [147a, isonicotinic acid 2-(2,8-dimethyl-1,2,3,4-tetrahydro-pyrido[4,3-b]indol-5-yl)-1-pyridin-4-yl-ethylester]","Percentage inhibition of ligand binding, Adrenergic α1B (0.1 μM)",[1]; [4],33%
same,"Percentage inhibition of ligand binding, Adrenergic α2B (0.03 μM)",[2]; [5],72%
same,"Percentage inhibition of ligand binding, Adrenergic α2A (0.1 μM)",[3]; [6],3%
"Cc1ccc2c(c1)c1c(n2CC(C)(O)c2ccncc2)CN(C)CC1 (single isomer, unassigned) [19a, 1-(2,6-dimethyl-1,2,3,4-tetrahydro-β-carbolin-9-yl)-2-pyridin-4-yl-propan-2-ol]",inhibition at 0.1 µM,"[1]; compound at 0.1 μM, [3H]Prazosin, repeat assays, each datapoint shown, read-out: Percentage inhibition of ligand binding, Adrenergic α1B",75%
same,"Percentage inhibition of ligand binding, Adrenergic α2B",[2]; [3H]Rauwolscine,75%
same,"Percentage inhibition of ligand binding, Adrenergic α2A","[3]; [3H]MK-912, 0.1 µM",21%
"Cc1ccc2c(c1)c1c(n2CC(O)c2ccncc2)CCN(CCO)C1 (stereo not shown) [II-64, 2-[2-(2-hydroxy-ethyl)-8-methyl-1,2,3,4-tetrahydro-pyrido[4,3-b]indol-5-yl]-1-pyridin-4-yl-ethanol]",inhibition at 0.1 µM,[1]; [7],23%
same,inhibition at 0.03 µM,[2]; [8],54%
same,inhibition at 0.1 µM,[3]; [9],-3%
"Cc1ccc2c(c1)c1c(n2CC(C)(O)c2ccncc2)CN(C)CC1 (single isomer, unassigned) [19b, 1-(2,6-dimethyl-1,2,3,4-tetrahydro-β-carbolin-9-yl)-2-pyridin-4-yl-propan-2-ol]","Percentage inhibition of ligand binding, Adrenergic α1B",[1]; [10],62%
same,"Percentage inhibition of ligand binding, Adrenergic α2B",[2]; [3H]Rauwolscine,27%
same,"Percentage inhibition of ligand binding, Adrenergic α2A","[3]; [3H]MK-912, 0.1 µM",9%
"Cc1ccc(C(C)(O)Cn2c3c(c4cc(Cl)ccc42)CN(C)CC3)cn1 (single isomer, unassigned) [93a]","Percentage inhibition of ligand binding, Adrenergic α1B (0.1 μM)",[1]; [4],37%
same,inhibition at 0.03 µM,"[1]; read-out: Percentage inhibition of ligand binding, Adrenergic α1B (0.03 μM), compound at 0.03 μM, [3H]Prazosin, repeat datapoints each shown",13%
same,"Percentage inhibition of ligand binding, Adrenergic α2B (0.03 μM)",[2]; [5],63% and 102%
same,Ki,[2]; read-out: Ki α2B,1.14 nM
same,Ki,[3],90.5 nM
same,"Percentage inhibition of ligand binding, Adrenergic α2A (0.1 μM)",[3]; [6],25% and 36%
same,inhibition at 0.03 µM,"[3]; read-out: Percentage inhibition of ligand binding, Adrenergic α2A (0.03 μM), compound at 0.03 μM, [3H]MK-912, repeat datapoints each shown",14%
"CN1CCc2c(c3cc(C(F)(F)F)ccc3n2CC(O)c2cccnc2)C1 (single isomer, unassigned) [59b]","Percentage inhibition of ligand binding, Adrenergic α1B",[1]; [10],7%
same,"Percentage inhibition of ligand binding, Adrenergic α2B",[2]; [3H]Rauwolscine,31%
same,"Percentage inhibition of ligand binding, Adrenergic α2A","[3]; [3H]MK-912, 0.1 µM",12%
"CC(O)(Cn1c2c(c3cc(Cl)cnc31)C1CCCN1CC2)c1cccnc1 (single isomer, unassigned) [IV-210b]","Percentage inhibition of ligand binding, Adrenergic α1B (0.1 μM)",[1]; [4],10%
same,"Percentage inhibition of ligand binding, Adrenergic α2B (0.03 μM)",[2]; [5],29%
same,"Percentage inhibition of ligand binding, Adrenergic α2A (0.1 μM)",[3]; [6],8%
